Assay results published in ChEMBL document CHEMBL1122274, “Inhibitors of glycolic acid oxidase. 4-substituted 2,4-dioxobutanoic acid derivatives” (J Med Chem, 1983).

How the values were obtained:
[1] = Acidic dissociation constant (pKa) determined in 50% aqueous ethanol; type: physicochemical
[2] = Acidic dissociation constant (pKa) determined in 50% aqueous ethanol;ND is defined as no-data.; type: physicochemical

O=C(O)C(=O)CC(=O)c1ccc(-c2ccccc2)cc1
pKa [1]: 3.34 | pKa [2]: 3.34
